Results taken from patent publication US20240132431A1, “METHOD FOR ALKYLATING ACIDIC FUNCTIONAL GROUP” (Chugai Seiyaku Kabushiki Kaisha, priority 2021, published 2024).

Biological target: T1, Bcl-2 protein (Recombinant Human Bcl-2 Protein) (Homo sapiens, UniProt P10415)
T1 construct: purchased Novus NBP2-34889
Assay: Binding evaluation of mixture library compounds to Bcl-2 using AS-MS (affinity selection mass spectrometry)
Details: for ASMS ratio (%) n = 1: replicate n = 1; for ASMS ratio (%) n = 1 / ASMS ratio (%) n = 2: ASMS Ratio(%)=(A−C)/B×100; for ASMS ratio (%) n = 2: replicate n = 2
Procedure, shortened: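 Bcl-2 binding is scored from LC/MS signal retained with protein through gel-filtration spin columns, normalised to unfiltered and protein-free controls. Incubation: 20 μM protein, […] per compound, 1 h, 23° C.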

[1] = AS-MS, mixture of 1200 compounds, Bcl-2
[2] = AS-MS on the mixture of 1200 library compounds

T1 sequence (P10415 whole entry): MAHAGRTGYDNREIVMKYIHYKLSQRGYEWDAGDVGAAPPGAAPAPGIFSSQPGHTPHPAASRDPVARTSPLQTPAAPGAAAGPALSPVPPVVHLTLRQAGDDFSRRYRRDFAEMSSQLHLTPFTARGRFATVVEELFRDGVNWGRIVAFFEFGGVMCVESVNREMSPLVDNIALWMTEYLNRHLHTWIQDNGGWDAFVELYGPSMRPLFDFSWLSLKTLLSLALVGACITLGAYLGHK

Row | ASMS ratio (%) n = 1 (AS-MS, mixture library, Bcl-2) [%] | ASMS ratio (%) n = 2 (AS-MS, mixture library, Bcl-2) [%] | ASMS ratio (%) (n = 1) | ASMS ratio (%) (n = 2) | SMILES | also measured
1 | – | – | 0.0 | 0.0 | CCOc1cncc(-c2cc(CN3CCN(c4ccc(C(=O)NS(=O)(=O)C(C)(C)C)cc4)CC3)cc(C(F)(F)F)c2)c1 [B2L062-01, N-tert-Butylsulfonyl-4-[4-[[3-(5-ethoxypyridin-3-yl)-5-(trifluoromethyl)phenyl]methyl]piperazin-1-yl]benzamide] | –
2 | – | – | 0.0 | 0.0 | CCOc1cccc(C#Cc2ccccc2CN2CCN(c3ccc(C(=O)NS(=O)(=O)CCC(F)(F)F)nn3)CC2)c1 [B2N095-01, 6-[4-[[2-[2-(3-Ethoxyphenyl)ethynyl]phenyl]methyl]piperazin-1-yl]-N-(3,3,3-trifluoropropylsulfonyl)pyridazine-3-carboxamide] | –
3 | – | – | 0.0 | 0.0 | CCOc1cncc(-c2ccccc2CN2CCN(c3ccc(C(=O)NS(=O)(=O)C(C)(C)C)cc3)CC2)c1 [B2L046-01, N-tert-Butylsulfonyl-4-[4-[[2-(5-ethoxypyridin-3-yl)phenyl]methyl]piperazin-1-yl]benzamide] | –
4 | 0.0 | 0.0 | – | – | CCOc1cncc(-c2cc(OC)c(CN3CCN(c4ccc(C(=O)NS(=O)(=O)c5ccc(NCCSc6ccccc6)c([N+](=O)[O-])c5)cc4)CC3)c(OC)c2)c1 [B2Q060-01, 4-[4-[[4-(5-Ethoxypyridin-3-yl)-2,6-dimethoxyphenyl]methyl]piperazin-1-yl]-N-[3-nitro-4-(2-phenylsulfanylethylamino)phenyl]sulfonylbenzamide] | –
5 | – | – | 0.0 | 0.0 | CCOc1cccc(C#Cc2cncc(C(=O)N3CCN(c4ccc(C(=O)NS(=O)(=O)C(C)(C)C)cc4)CC3)c2)c1 [B2L031-01, N-tert-Butylsulfonyl-4-[4-[5-[2-(3-ethoxyphenyl)ethynyl]pyridine-3-carbonyl]piperazin-1-yl]benzamide] | –
6 | – | – | 0.0 | 0.0 | CCOc1cncc(-c2cc(CN3CCN(c4ccc(C(=O)NS(=O)(=O)CCC(F)(F)F)nn4)CC3)cc(OC(C)C)c2)c1 [B2N084-01, 6-[4-[[3-(5-Ethoxypyridin-3-yl)-5-propan-2-yloxyphenyl]methyl]piperazin-1-yl]-N-(3,3,3-trifluoropropylsulfonyl)pyridazine-3-carboxamide] | –
7 | 0.0 | 0.0 | – | – | CCOc1cccc(-c2cc(C(=O)N3CCN(c4ccc(C(=O)NS(C)(=O)=O)nn4)CC3)cc(C(F)(F)F)c2)c1 [B2I017-01, 6-[4-[3-(3-Ethoxyphenyl)-5-(trifluoromethyl)benzoyl]piperazin-1-yl]-N-methylsulfonylpyridazine-3-carboxamide] | –
8 | – | – | 0.0 | 0.0 | CCOc1cncc(-c2cc(C(=O)N3CCN(c4ccc(C(=O)NS(=O)(=O)CCC(F)(F)F)cc4)CC3)cc(C(C)(C)C)c2)c1 [B2N038-01, 4-[4-[3-tert-Butyl-5-(5-ethoxypyridin-3-yl)benzoyl]piperazin-1-yl]-N-(3,3,3-trifluoropropylsulfonyl)benzamide] | –
9 | 12.0 | 14.0 | – | – | CCOc1cncc(-c2cc(CN3CCN(c4ccc(C(=O)NS(=O)(=O)CC56CC7CC(CC(C7)C5)C6)nn4)CC3)cc(C(F)(F)F)c2)c1 [B2A088-01, N-(1-Adamantylmethylsulfonyl)-6-[4-[[3-(5-ethoxypyridin-3-yl)-5-(trifluoromethyl)phenyl]methyl]piperazin-1-yl]pyridazine-3-carboxamide] | –

More lines, now with the values behind:

Row | SMILES | ASMS ratio (%) n = 1 (AS-MS, mixture library, Bcl-2) [%] | ASMS ratio (%) n = 2 (AS-MS, mixture library, Bcl-2) [%] | ASMS ratio (%) (n = 1) | ASMS ratio (%) (n = 2) | also measured
10 | CCOc1cncc(-c2cc(CN3CCN(c4ccc(C(=O)NS(=O)(=O)CC56CC7CC(CC(C7)C5)C6)nn4)CC3)cc(OC(C)C)c2)c1 [B2A084-01, N-(1-Adamantylmethylsulfonyl)-6-[4-[[3-(5-ethoxypyridin-3-yl)-5-propan-2-yloxyphenyl]methyl]piperazin-1-yl]pyridazine-3-carboxamide] | 13.3 | 11.9 | – | – | –
11 | CCOc1cncc(-c2cc(CN3CCN(c4ccc(C(=O)NCC(F)(F)F)cc4)CC3)cc(OCC)c2)c1 [B1K056-01, 4-[4-[[3-Ethoxy-5-(5-ethoxypyridin-3-yl)phenyl]methyl]piperazin-1-yl]-N-(2,2,2-trifluoroethyl)benzamide] | – | – | – | – | ASMS ratio (%) n = 1 [1]: 3.3%; ASMS ratio (%) n = 2 [1]: 0.2%
12 | CCOc1cncc(-c2ccc(CN3CCN(c4ccc(C(=O)NS(=O)(=O)c5ccc(NCCSc6ccccc6)c([N+](=O)[O-])c5)nn4)CC3)cc2C)c1 [B2Q074-01] | 18.8 | 15.4 | – | – | –
13 | CCOc1cccc(-c2cc(CN3CCN(c4ccc(C(=O)NS(=O)(=O)c5ccc(NCCSc6ccccc6)c(C(F)(F)F)c5)cc4)CC3)cc(OC(C)C)c2)c1 [B2R057-01, 4-[4-[[3-(3-Ethoxyphenyl)-5-propan-2-yloxyphenyl]methyl]piperazin-1-yl]-N-[4-(2-phenylsulfanylethylamino)-3-(trifluoromethyl)phenyl]sulfonylbenzamide] | – | – | 5.7 | −5.1 | –
14 | CCOc1cncc(-c2csc(CN3CCN(c4ccc(C(=O)NCC(F)(F)F)nn4)CC3)c2)c1 [B1K094-01, 6-[4-[[4-(5-Ethoxypyridin-3-yl)thiophen-2-yl]methyl]piperazin-1-yl]-N-(2,2,2-trifluoroethyl)pyridazine-3-carboxamide] | – | – | – | – | ASMS ratio (%) n = 1 [1]: 1.4%; ASMS ratio (%) n = 2 [1]: −0.1%
15 | CCOc1cccc(-c2csc(C(=O)N3CCN(c4ccc(C(=O)Nc5ccc(OC)cc5)cc4)CC3)c2)c1 [B1O023-01, 4-[4-[4-(3-Ethoxyphenyl)thiophene-2-carbonyl]piperazin-1-yl]-N-(4-methoxyphenyl)benzamide] | – | – | – | – | ASMS ratio (%) n = 1 [2]: 12.4%; ASMS ratio (%) n = 2 [2]: −0.3%
16 | CCOc1cccc(-c2cc(CN3CCN(c4ccc(C(=O)NCC(F)(F)F)cc4)CC3)cc(OCC)c2)c1 [B1K055-01, 4-[4-[[3-Ethoxy-5-(3-ethoxyphenyl)phenyl]methyl]piperazin-1-yl]-N-(2,2,2-trifluoroethyl)benzamide] | – | – | – | – | ASMS ratio (%) n = 1 [1]: −0.8%; ASMS ratio (%) n = 2 [1]: 0.0%
17 | CCOc1cccc(-c2cc(CN3CCN(c4ccc(C(=O)N(CC)CC)cc4)CC3)cc(OC(C)C)c2)c1 [B4J057-01, 4-[4-[[3-(3-Ethoxyphenyl)-5-propan-2-yloxyphenyl]methyl]piperazin-1-yl]-N,N-diethylbenzamide] | – | – | – | – | ASMS ratio (%) n = 1 [2]: 5.3%; ASMS ratio (%) n = 2 [2]: −0.1%
18 | CCOc1cncc(-c2cc(CN3CCN(c4ccc(C(=O)NS(=O)(=O)c5ccc(NCCSc6ccccc6)c([N+](=O)[O-])c5)nn4)CC3)cc(C(F)(F)F)c2)c1 [B2Q088-01, 6-[4-[[3-(5-Ethoxypyridin-3-yl)-5-(trifluoromethyl)phenyl]methyl]piperazin-1-yl]-N-[3-nitro-4-(2-phenylsulfanylethylamino)phenyl]sulfonylpyridazine-3-carboxamide] | 13.8 | 9.1 | – | – | –
19 | CCOc1cccc(-c2cc(CN3CCN(c4ccc(C(=O)NCC56CC7CC(CC(C7)C5)C6)nn4)CC3)cc(OC(C)C)c2)c1 [B1A083-01, N-(1-Adamantylmethyl)-6-[4-[[3-(3-ethoxyphenyl)-5-propan-2-yloxyphenyl]methyl]piperazin-1-yl]pyridazine-3-carboxamide] | – | – | – | – | ASMS ratio (%) n = 1 [1]: −0.3%; ASMS ratio (%) n = 2 [1]: 0.5%
20 | CCOc1cncc(-c2ccc(C(C)N3CCN(c4ccc(C(=O)NCC56CC7CC(CC(C7)C5)C6)cc4)CC3)c(F)c2)c1 (stereo not shown) [B1A100-01, N-(1-Adamantylmethyl)-4-[4-[1-[4-(5-ethoxypyridin-3-yl)-2-fluorophenyl]ethyl]piperazin-1-yl]benzamide] | – | – | – | – | ASMS ratio (%) n = 1 [1]: 6.4%; ASMS ratio (%) n = 2 [1]: 2.3%
21 | CCOc1cncc(-c2csc(C(=O)N3CCN(c4ccc(C(=O)NS(=O)(=O)c5ccc(NCCSc6ccccc6)c([N+](=O)[O-])c5)nn4)CC3)c2)c1 [B2Q002-01, 6-[4-[4-(5-Ethoxypyridin-3-yl)thiophene-2-carbonyl]piperazin-1-yl]-N-[3-nitro-4-(2-phenylsulfanylethylamino)phenyl]sulfonylpyridazine-3-carboxamide] | 24.5 | 17.2 | – | – | –
22 | CCOc1cccc(C#Cc2cc(C(=O)N3CCN(c4ccc(C(=O)Nc5ccc(OC)cc5)nn4)CC3)cc(C(F)(F)F)c2)c1 [B1O019-01, 6-[4-[3-[2-(3-Ethoxyphenyl)ethynyl]-5-(trifluoromethyl)benzoyl]piperazin-1-yl]-N-(4-methoxyphenyl)pyridazine-3-carboxamide] | – | – | – | – | ASMS ratio (%) n = 1 [2]: 0.6%; ASMS ratio (%) n = 2 [2]: 0.2%
23 | CCOc1cncc(-c2ccc(CN3CCN(c4ccc(C(=O)NS(=O)(=O)CC56CC7CC(CC(C7)C5)C6)nn4)CC3)c3ccccc23)c1 [B2A092-01, N-(1-Adamantylmethylsulfonyl)-6-[4-[[4-(5-ethoxypyridin-3-yl)naphthalen-1-yl]methyl]piperazin-1-yl]pyridazine-3-carboxamide] | 20.8 | 16.6 | – | – | –
